The values below come from patent US20250082630A1, “METHODS OF TREATING BRAIN TUMOURS AND NEUROBLASTOMAS” (AstraZeneca AB, priority 2021, published 2025).

In data set [1] the target is PARP1 (Homo sapiens (Human), UniProt P09874). Briefly: PARP fluorescence anisotropy binding assay, PARP1.
Experimental: Recombinant full length 6HIS tagged PARP1 protein was diluted to 6 nM with 50 mM Tris pH 8, 0.001% Triton X100, 10 mM MgCl2, 150 mM NaCl and incubated for four hours with an equivalent volume of 2 nM fluorescent probe diluted with 50 mM Tris pH 8, 0.001% Triton X100, 10 mM MgCl2, 150 mM NaCl. The final DMSO concentration of the probe was kept below 1% (v/v).
The target in data set [2] is PARP2 (Homo sapiens (Human), UniProt Q9UGN5). In words: PARP fluorescence anisotropy binding assay, PARP2. The procedure:
Recombinant full length PARP2 protein was diluted to 6 nM with 50 mM Tris pH 8, 0.001% Triton X100, 10 mM MgCl2, 150 mM NaCl and incubated for four hours with an equivalent volume of 2 nM fluorescent probe diluted with 50 mM Tris pH 8, 0.001% Triton X100, 10 mM MgCl2, 150 mM NaCl. The final DMSO concentration of the probe was kept below 1% (v/v).
Fluorescence anisotropy of the probe when bound to the proteins was measured using a BMG Pherastar FSX® in the presence of test compounds or solvent control and the effect on anisotropy determined. % inhibition values for different test compound concentrations were calculated and fitted to a four parameter logistic plot in order to determine the IC50 value.

Data set [3] deals with PARP3 (Homo sapiens (Human), UniProt Q9Y6F1). Briefly: PARP fluorescence anisotropy binding assay, PARP3.
Experimental: Recombinant full length PARP3 protein was diluted to 100 nM with 50 mM Tris pH 8, 0.001% Triton X100, 10 mM MgCl2, 150 mM NaCl and incubated for four hours with an equivalent volume of 6 nM fluorescent probe diluted with 50 mM Tris pH 8, 0.001% Triton X100, 10 mM MgCl2, 150 mM NaCl. The final DMSO concentration of the probe was kept below 1% (v/v).
Data set [4] concerns the target PARP5a (Homo sapiens (Human), UniProt O95271). In words: PARP fluorescence anisotropy binding assay, PARP5a.
Experimental: Recombinant PARP5a binding domain was diluted to 160 nM with 50 mM Tris pH 8, 0.001% Triton X100, 10 mM MgCl2, 150 mM NaCl and incubated for four hours with an equivalent volume of 6 nM fluorescent probe diluted with 50 mM Tris pH 8, 0.001% Triton X100, 10 mM MgCl2, 150 mM NaCl. The final DMSO concentration of the probe was kept below 1% (v/v).
The target of data set [5] is PARP6 (Homo sapiens (Human), UniProt Q2NL67). Briefly: PARP fluorescence anisotropy binding assay, PARP6. The procedure: Recombinant full length GST tagged PARP6 protein was diluted to 160 nM with 50 mM Tris pH 8, 0.001% Triton X100, 10 mM MgCl2, 150 mM NaCl and incubated for four hours with an equivalent volume of 6 nM fluorescent probe diluted with 50 mM Tris pH 8, 0.001% Triton X100, 10 mM MgCI2, 150 mM NaCl. The final DMSO concentration of the probe was kept below 1% (v/v).
Fluorescence anisotropy of the probe when bound to the proteins was measured using a BMG Pherastar FSX® in the presence of test compounds or solvent control and the effect on anisotropy determined. % inhibition values for different test compound concentrations were calculated and fitted to a four parameter logistic plot in order to determine the IC50 value. Where necessary, the compound K, can be determined from the IC50 value using a Munson Rodbard equation defined in Anal Biochem. 1980 Sep. 1; 107(1):220-39 and is based on the known KD of the probe binding to the relevant PARP protein

Data set [6] in a line: Determination of Kpuu in rat. In kind it is in vivo, Han Wistar rats. The conditions noted are these: intravenous infusion; for Kp uu at 4 h: Han Wistar, rat, brain and plasma (unbound brain-to-plasma ratio), 2 µmols/kg/h; for Rat Kpuu: 4 h, brain/plasma unbound. The procedure: The fraction unbound was determined using the RED Device.
Compounds were prepared as 10 mM solutions in DMSO. […] If less than 9 test compounds were included then the addition volume of blank DMSO was added to make up volume to 40 uL.
Frozen plasma was thawed in a water bath at 37° C. Plasma was then centrifuged for 2 minutes at 4,000 rpm to remove clots and collect supernatant into a fresh tube. The pH of the plasma was checked and only used if within the range of pH 7 to pH 8. 3 μL of the working solution of each cassette was added to 597 μL of blank plasma and vortexed for 5 minutes at 1000 rpm. The final percent volume of organic solvent is 0.5% and the final concentration for test compound was 5 μM. Immediately transfer 50 μL of the spiked plasma suspension to a 96-well plate to act as T=0 control sample. The samples are treated the same as the samples after incubation. The remaining plasma is kept at 37° C. prior to starting the dialysis.
Place inserts open end up into the wells of the base plate. Add 300 μL of spiked plasma sample into the sample chamber, indicated by the red ring. Add 500 μL of phosphate buffer (pH 7.4) to the buffer chamber. Cover the unit with gas permeable lid and incubate for 18 hours at 37° C. at 300 rpm with 5% CO2 on an orbital shaker in the CO2 incubator. At the end of incubation, remove lid and pipette 50 μL of post-dialysis samples from both buffer and plasma chambers into separated 96-well plate for analysis, respectively.
Samples were matrix matched by adding 50 μL of blank rat plasma to the buffer samples and an equal volume of PBS to the collected plasma samples and vortexed to mix. 400 μL of acetonitrile containing an appropriate internal standard (IS) was added to precipitate protein and release compound and mixed by vortexing the plate for 10 minutes followed by centrifugation for 30 minutes at 4,000 rpm. 250 μL of the supernatant was transferred to new 96-well plates and centrifuged again (4,000 rpm, 30 minutes). 100 μL of the supernatant was then transferred to new 96-well plates and mixed with 100 μL of distilled water to each sample by vortex for 5 minutes at 1,000 rpm. Samples were analysed by LC-MS/MS and drug concentrations were determined vs a calibration curve produced from spiked blank plasma with a typical range of 1-7500 nM.
The % unbound was determined as % Unbound=(Conc. buffer chamber/Conc. plasma chamber)×100%. Fraction unbound=% unbound/100.
The principle for the method for the determination of volume unbound in brain slices has previously been published (Development of a High-Throughput Brain Slice Method for Studying Drug Distribution in the Central Nervous System; Fridén et al; Drug Metabolism and Disposition, 2009, 37 (6) 1226-1233). In brief:
Compound stock solutions were prepared in DMSO at the concentration of 10 mM. […] If less than 9 test compounds were included, then blank DMSO was added to make up volume to 40 uL. On the day of the experiment 4 ul was diluted in 40 mL ECF buffer to give a 100 nM solution of each test compounds which was then pre-warmed to 37° C. before the start of the incubation.
To prepare brain slices, rats weighing approximately 300 g were terminally anesthetised with isoflurane by inhalation, the brain carefully removed and immersed in ice-cold oxygenated ECF buffer. The rat brain was transferred to a dish containing ice-cold, 02 supplied ECF buffer and trimmed with razor before gluing to the tray of a microslicer with the brain placed with the back section surface down centrally on the tray. Ice cold ECF buffer was added to harden the glue and wet the brain. The tray was placed in the microslicer and using a suitable cutting speed, 100-400 μm were cut slices until the striatum area appeared. Four to six for each brain, 300 μm thick, coronal slices of striatum areas were cut and placed in ice cold 02 supplied buffer until incubation. Six slices were transferred to the incubation tray containing 40 mL pre warmed (37° C.) cassette mixture. […]

The subject of data set [7] is MDR1 and BCRP. In words: In vitro human transporter efflux (MDCK-MDR1-BCRP). The conditions noted are these: human, pH 7.4.
Experimental: MDCKII cells expressing MDR1 and BCRP were seeded onto polyethylene membranes in 96-well Transwell insert systems at a density to form a confluent cell monolayer. […] The final percent volume of the organic solvent was less than 1%. Permeation of the test compounds from A to B direction and from B to A direction was determined over a 90-min incubation at 37° C. and 5% CO2 with a relative humidity of 95%. At the end of the incubation, samples from the apical and basolateral side were taken and then precipitated with cold acetonitrile containing internal standard. After centrifugation at 4000 rpm, the supernatant was diluted with 0.1% formic acid aqueous solution and quantified by LC-MS/MS. The integrity of the cell monolayers was confirmed by using the marker Lucifer yellow.
The permeability coefficient (1×10-6 cm/s) was calculated using the following equation
(1) The Efflux Ratio was Calculated Using the Following Equation
Efflux ratio=Papp(B to A)/Papp(A to B)
(2) where dCr/dt is the cumulative concentration of the compound in the receiver chamber as a function of time (in μM/s); Vr is the solution volume in the receiver chamber (0.1 ml on the apical side and 0.3 ml on the basolateral side); A is the surface area for the transport, that is, 0.11 cm2 for the area of the monolayer; and C0 is the initial concentration in the donor chamber (in μM).
In data set [8] the target is hERG (Homo sapiens (Human), UniProt Q12809). In words: hERG IC50.
In data set [9] the test system is BRCA2 (−/−) DLD1 cells. In words: PARP proliferation assay (7 day compound dosing), BRCA2 (−/−) DLD1. In kind it is cell-based. The conditions noted are these: Homo sapiens, DLD-1, 168 h, read-out: BRCA2 −/− DLD-1 prolif. 7 d IC50. The protocol:
DLD1 and BRCA2 (−/−) DLD1 cells were harvested to a density of 5000 cells/ml and 2.5E4 cells/ml respectively in complete media, 40 μL/well seeded into 384-well plates (Greiner, Kremsmunster, Austria; 781090) using a Multidrop Combi then incubated at 37° C., 5% CO2 overnight. Next day (Day 1) using a Multidrop Combi add sytox green (5ul, 2 uM) and saponin (10 ul, 0.25% stock) to a day 0 plate, seal the plate using a black adhesive lid and incubate for >3 h at it. Cells were imaged using Cell Insight (Thermo Fisher) fitted with a 4x objective. Test compounds are added using an Echo 555 and placed in incubator maintained at 37° C., 5% CO2 and incubated for 7 days. On Day 8 add sytox green (5ul, 2 uM) and then saponin (10 ul, 0.25% stock) to plates, seal the plate using a black adhesive lid and incubate for >3 h at it. Read all cells on the Cell Insight with 4× Objective. The rate of proliferation is determined in Genedata by assessing the total cell number output from the Cell Insight for Day 0 and Day 8 plates.

Data set [10] concerns U87MG xenograft. In kind it is in vivo, female Nude mice. The protocol: U87MG cells (2.5 million in serum-free MEM medium) were implanted subcutaneously (SC) into the dorsal flank of female Nude mice (weight greater than 18 g). Tumours were measured (length x width) two times weekly by bilateral Vernier calliper measurements and tumour volume was calculated using elliptical formula (π/6×width×width×length). Animal bodyweight and tumour condition were monitored throughout the study. Mice were randomised into treatment groups when mean tumour volume reached approximately 0.2 cm^3.
Animals were treated orally (PO) from the day after the randomisation. Control animals were treated with vehicle (water/methane sulfonic acid (MSA) pH3-3.2) once daily for 10 days (QD×10). PARP inhibitor in water/MSA pH3-3.2 was dosed in the monotherapy and combination groups at 3 mg/kg QD×10 or QD×33, respectively. Temozolomide (TMZ) in OraPlus Perrigo was dosed in the monotherapy group at 25 mg/kg QD on days 1-5 and 29-33, and in monotherapy and combination group at 6.25 mg/kg QD on days 1-5 and 29-33.
Tumour growth inhibition from start of treatment was assessed by comparison of the mean change in tumour volume (TV) of the control and treated groups and represented as percent tumour growth inhibition (TGI, when tumour volume (TV) >starting TV) or tumour regression (reg, when TV<starting TV). Statistical significance was evaluated using a one-tailed t test. Statistical significance is indicated as follows: *p:0.05, **p:0.01, ***p:0.001.

Setting [11] is: TMZ 6.25 mg/kg QD on days 1-5 and 29-33, PO.
[12] abbreviates: TMZ 25 mg/kg QD on days 1-5 and 29-33, PO.

Where two headings read alike, the source gives them in different places.

Sequence of PARP5a (O95271 1112-1317): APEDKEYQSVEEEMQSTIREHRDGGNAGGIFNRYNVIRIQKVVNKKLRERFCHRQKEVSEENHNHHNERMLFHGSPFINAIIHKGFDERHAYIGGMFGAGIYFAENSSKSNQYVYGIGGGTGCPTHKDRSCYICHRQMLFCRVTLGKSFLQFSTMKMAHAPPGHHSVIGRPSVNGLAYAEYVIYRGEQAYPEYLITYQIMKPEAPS
Sequence of PARP2 (Q9UGN5 whole entry): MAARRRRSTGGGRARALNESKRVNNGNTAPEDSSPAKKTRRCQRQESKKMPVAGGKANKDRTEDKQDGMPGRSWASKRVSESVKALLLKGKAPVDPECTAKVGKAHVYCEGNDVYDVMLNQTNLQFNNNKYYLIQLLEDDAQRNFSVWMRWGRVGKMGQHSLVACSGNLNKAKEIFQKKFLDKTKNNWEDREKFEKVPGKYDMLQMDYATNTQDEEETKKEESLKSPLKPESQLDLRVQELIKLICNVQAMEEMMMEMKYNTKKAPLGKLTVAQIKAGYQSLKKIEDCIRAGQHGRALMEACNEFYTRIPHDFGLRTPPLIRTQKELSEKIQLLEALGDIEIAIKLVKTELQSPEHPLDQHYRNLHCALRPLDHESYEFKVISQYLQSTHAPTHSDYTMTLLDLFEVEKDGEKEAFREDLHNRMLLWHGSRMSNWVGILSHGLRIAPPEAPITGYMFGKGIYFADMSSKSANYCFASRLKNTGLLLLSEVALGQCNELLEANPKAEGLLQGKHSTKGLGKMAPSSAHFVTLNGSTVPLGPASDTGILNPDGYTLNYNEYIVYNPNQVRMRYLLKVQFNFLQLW
Sequence of PARP6 (Q2NL67 whole entry): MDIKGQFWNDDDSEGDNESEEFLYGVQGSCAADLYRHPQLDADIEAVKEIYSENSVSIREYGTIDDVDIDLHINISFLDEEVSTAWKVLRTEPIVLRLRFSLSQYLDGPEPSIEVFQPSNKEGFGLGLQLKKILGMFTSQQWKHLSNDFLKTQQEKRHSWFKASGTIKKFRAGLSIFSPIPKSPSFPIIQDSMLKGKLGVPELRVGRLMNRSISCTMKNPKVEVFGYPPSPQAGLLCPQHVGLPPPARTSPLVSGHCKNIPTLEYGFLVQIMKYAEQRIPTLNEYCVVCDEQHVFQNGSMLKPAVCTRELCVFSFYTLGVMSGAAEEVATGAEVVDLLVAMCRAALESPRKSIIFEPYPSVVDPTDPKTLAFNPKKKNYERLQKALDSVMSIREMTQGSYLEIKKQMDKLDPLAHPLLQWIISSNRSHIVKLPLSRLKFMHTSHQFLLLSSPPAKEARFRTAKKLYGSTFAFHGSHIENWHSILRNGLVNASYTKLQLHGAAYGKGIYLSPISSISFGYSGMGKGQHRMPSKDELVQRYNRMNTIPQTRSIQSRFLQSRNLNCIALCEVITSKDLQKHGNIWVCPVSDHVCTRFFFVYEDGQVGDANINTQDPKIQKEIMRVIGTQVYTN
Sequence of PARP3 (Q9Y6F1 whole entry): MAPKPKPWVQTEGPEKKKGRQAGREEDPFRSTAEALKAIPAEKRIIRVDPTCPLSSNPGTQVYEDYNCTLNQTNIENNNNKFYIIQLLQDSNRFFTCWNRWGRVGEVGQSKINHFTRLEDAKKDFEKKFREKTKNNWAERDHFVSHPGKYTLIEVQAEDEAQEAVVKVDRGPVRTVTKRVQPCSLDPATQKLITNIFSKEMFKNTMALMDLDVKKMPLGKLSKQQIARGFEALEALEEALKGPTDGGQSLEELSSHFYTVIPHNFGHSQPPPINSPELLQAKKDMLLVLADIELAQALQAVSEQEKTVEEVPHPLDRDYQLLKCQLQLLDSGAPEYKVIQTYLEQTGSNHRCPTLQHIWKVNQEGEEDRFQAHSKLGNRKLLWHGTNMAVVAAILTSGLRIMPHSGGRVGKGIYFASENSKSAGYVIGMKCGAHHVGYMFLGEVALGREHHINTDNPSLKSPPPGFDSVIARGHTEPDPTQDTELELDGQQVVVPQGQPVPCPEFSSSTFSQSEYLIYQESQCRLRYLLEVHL
Sequence of PARP1 (P09874 whole entry): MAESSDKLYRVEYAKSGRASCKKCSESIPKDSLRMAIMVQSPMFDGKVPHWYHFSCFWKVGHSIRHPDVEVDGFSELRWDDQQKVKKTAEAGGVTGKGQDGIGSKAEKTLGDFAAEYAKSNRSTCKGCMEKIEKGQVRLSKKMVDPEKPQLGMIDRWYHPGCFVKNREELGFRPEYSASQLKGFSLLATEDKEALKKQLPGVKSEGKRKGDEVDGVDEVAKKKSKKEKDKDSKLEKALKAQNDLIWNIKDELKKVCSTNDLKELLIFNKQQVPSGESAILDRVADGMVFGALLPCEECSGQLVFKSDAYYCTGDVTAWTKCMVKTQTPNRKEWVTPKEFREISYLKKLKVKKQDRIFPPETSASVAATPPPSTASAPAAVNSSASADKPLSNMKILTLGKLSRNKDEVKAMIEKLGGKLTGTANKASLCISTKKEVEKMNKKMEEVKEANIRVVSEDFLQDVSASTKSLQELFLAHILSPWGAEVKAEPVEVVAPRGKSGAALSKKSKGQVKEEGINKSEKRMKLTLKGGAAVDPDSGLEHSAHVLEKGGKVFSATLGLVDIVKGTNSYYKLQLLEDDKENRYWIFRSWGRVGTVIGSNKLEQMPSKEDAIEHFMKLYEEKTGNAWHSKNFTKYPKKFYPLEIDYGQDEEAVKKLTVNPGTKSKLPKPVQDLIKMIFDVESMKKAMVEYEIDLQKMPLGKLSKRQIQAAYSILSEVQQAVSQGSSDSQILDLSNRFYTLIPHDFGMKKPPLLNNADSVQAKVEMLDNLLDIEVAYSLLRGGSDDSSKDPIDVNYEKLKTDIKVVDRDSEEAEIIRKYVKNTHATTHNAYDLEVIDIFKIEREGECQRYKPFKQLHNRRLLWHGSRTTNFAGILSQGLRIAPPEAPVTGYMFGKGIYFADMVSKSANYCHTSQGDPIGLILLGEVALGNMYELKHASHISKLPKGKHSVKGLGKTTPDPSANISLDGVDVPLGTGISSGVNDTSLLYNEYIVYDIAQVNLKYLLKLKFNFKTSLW
Sequence of hERG (Q12809 whole entry): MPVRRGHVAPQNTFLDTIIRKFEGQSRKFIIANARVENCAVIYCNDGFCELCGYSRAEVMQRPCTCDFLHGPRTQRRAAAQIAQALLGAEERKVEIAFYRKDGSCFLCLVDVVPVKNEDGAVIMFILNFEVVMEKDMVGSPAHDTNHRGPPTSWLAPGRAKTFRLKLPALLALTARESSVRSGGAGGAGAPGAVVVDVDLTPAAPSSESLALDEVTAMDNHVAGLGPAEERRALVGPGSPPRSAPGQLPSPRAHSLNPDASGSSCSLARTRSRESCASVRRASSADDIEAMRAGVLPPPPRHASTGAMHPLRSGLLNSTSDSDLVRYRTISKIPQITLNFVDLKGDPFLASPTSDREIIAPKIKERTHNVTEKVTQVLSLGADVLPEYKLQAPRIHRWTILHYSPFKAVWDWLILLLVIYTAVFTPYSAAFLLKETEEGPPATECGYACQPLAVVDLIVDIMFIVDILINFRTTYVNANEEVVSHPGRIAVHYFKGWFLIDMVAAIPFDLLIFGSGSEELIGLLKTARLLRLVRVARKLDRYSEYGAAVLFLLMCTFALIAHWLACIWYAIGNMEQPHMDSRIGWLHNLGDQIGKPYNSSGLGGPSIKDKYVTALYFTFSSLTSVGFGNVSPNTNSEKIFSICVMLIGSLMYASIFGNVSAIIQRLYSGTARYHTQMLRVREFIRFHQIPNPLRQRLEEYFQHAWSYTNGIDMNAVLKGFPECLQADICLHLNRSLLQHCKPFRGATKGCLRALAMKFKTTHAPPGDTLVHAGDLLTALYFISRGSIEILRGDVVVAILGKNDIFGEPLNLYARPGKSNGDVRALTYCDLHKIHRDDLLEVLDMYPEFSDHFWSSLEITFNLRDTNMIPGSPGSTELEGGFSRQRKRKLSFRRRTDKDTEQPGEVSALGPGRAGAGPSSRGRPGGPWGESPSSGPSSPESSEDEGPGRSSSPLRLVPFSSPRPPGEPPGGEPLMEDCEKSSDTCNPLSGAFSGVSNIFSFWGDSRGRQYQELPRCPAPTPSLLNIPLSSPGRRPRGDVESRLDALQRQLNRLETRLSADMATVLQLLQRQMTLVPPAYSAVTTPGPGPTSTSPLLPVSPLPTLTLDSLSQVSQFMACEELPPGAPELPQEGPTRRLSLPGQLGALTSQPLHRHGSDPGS

Turning to `CNC(=O)c1ccc(N2CCN(Cc3ccc4nc(C)c(=O)[nH]c4c3C)CC2)c(F)n1` [Example 1, 5-[4-[(2,5-dimethyl-3-oxo-4H-quinoxalin-6-yl)methyl]piperazin-1-yl]-6-fluoro-N-methyl-pyridine-2-carboxamide], the IC50 was 0.004 µM in [1]; more than 70 µM in data set [2]; more than 100 µM in data set [3]; more than 100 µM in data set [4]; more than 100 µM in data set [5]. The Kp uu at 4 h in data set [6] was determined as 0.07. Further, the efflux ratio at 90 min in data set [7] amounted to 0.7.

Turning to `CNC(=O)c1ccc(N2CCN(Cc3ccc4nc(C)c(=O)[nH]c4c3C)CC2)c(C)n1` [Example 4, 5-[4-[(2,5-dimethyl-3-oxo-4H-quinoxalin-6-yl)methyl]piperazin-1-yl]-N,6-dimethyl-pyridine-2-carboxamide], the IC50 is 0.005 µM in data set [1]; more than 83 µM in data set [2]; 78 µM in [3]; more than 100 µM in [4]; more than 100 µM in data set [5]. Also, the Kp uu at 4 h in [6] is 0.13. Also, the efflux ratio at 90 min in data set [7] was 0.8.

With `CNC(=O)c1ccc(N2CCN(Cc3ccc4nc(C)c(=O)[nH]c4c3Cl)CC2)c(C)n1` [Example 18, 5-[4-[(5-chloro-2-methyl-3-oxo-4H-quinoxalin-6-yl)methyl]piperazin-1-yl]-N,6-dimethyl-pyridine-2-carboxamide], the IC50 in data set [1] amounted to 0.005 µM; in [8] it was 14 µM.

Consider `CCc1nc2ccc(CN3CCN(c4ccc(C(=O)NC)nc4C)CC3)c(F)c2[nH]c1=O` [Example 23, 5-[4-[(2-ethyl-5-fluoro-3-oxo-4H-quinoxalin-6-yl)methyl]piperazin-1-yl]-N,6-dimethyl-pyridine-2-carboxamide], for which the IC50 in data set [1] was 0.005 µM; in data set [2], more than 67 µM; in data set [3], more than 100 µM; in data set [4], more than 100 µM; in data set [5], more than 100 µM. In [6], the Kp uu at 4 h was 0.62. Besides, the efflux ratio at 90 min in data set [7] is 0.8.

For the molecule `CCc1nc2ccc(CN3CCN(c4ccc(C(=O)NC)nc4F)CC3)c(F)c2[nH]c1=O` [Example 27, 5-[4-[(2-ethyl-5-fluoro-3-oxo-4H-quinoxalin-6-yl)methyl]piperazin-1-yl]-6-fluoro-N-methyl-pyridine-2-carboxamide], the IC50 in data set [3], in [4] and in [5] was more than 100 µM throughout. For the same molecule, the “Rat Kpuu” value in data set [6] turned out to be 0.43.

Take `CCc1nc2ccc(CN3CCN(c4ccc(C(=O)NC)nc4)CC3)c(F)c2[nH]c1=O` [Example 29, 5-[4-[(2-ethyl-5-fluoro-3-oxo-4H-quinoxalin-6-yl)methyl]piperazin-1-yl]-N-methyl-pyridine-2-carboxamide]: the IC50 was 0.015 µM in data set [1]; more than 100 µM in data set [2]; more than 100 µM in [3]; more than 100 µM in data set [4]; more than 100 µM in data set [5]. For the same molecule, the Kp uu at 4 h in data set [6] came to 0.33. Further, in data set [7], the efflux ratio at 90 min was 0.7.

As to `CNC(=O)c1ccc(N2CCN(Cc3ccc4nc(C)c(=O)[nH]c4c3F)CC2)c(C)n1` [Example 31, 5-[4-[(5-fluoro-2-methyl-3-oxo-4H-quinoxalin-6-yl)methyl]piperazin-1-yl]-N,6-dimethyl-pyridine-2-carboxamide], the IC50 in [1] is 0.007 µM; in data set [2] it was more than 100 µM; in data set [3], more than 100 µM; in data set [4], more than 100 µM; in data set [5], more than 100 µM; in data set [9] it was 0.007 µM. For the same molecule, the “Rat Kpuu” value in [6] is 0.19. Further, in data set [7], the efflux ratio at 90 min came to 1.6.

As for `Cn1nnc2c(C(N)=O)ncn2c1=O` [TMZ, Temozolomide], the tumour regression in data set [10] (setting [11]) is listed as 28%; in data set [10] (setting [12]) it was 92%. For the same molecule, the tumours regressed is 2/8 in [10] (setting [11]) and 7/8 in data set [10] (setting [12]).
